Reference: patent US8598383B2, “Pharmaceutical composition for treating or preventing degenerative and inflammatory diseases” (Neurotech Pharmaceuticals Co., Ltd., priority 2006, dated 2013)

Experiments:
diabetic symptoms = conditions: mouse administered streptozotocin; cited from earlier work
BV2 microglia cell line = experiment: Suppressing effect on production of NO (LPS, Griess reagent); assay type: cell-based; conditions: Mus musculus, BV-2, LPS-treated BV2 microglia, 24 hours incubation
Experimental: Inhibiting effect of the 2-hydroxybenzoic acid derivative according to the present invention on NO, inflammatory factor intervening inflammation reaction was evaluated. BV2 microglia cell line was treated with lipopolysaccharide (LPS), a inflammation-inducing material of bacteria toxin, with inclusion of 10 uM, 30 uM or 100 uM of the present compound. After 24 hours of incubation, 50 ul of culture medium was collected in 96-well plate. Then, 50 ul of Griess reagent was added and incubated for 10 minutes at room temperature. The absorbance was evaluated by ELISA reader at 540 nm.

[1] = Single-dose toxicity test; assay type: in vivo; conditions: mouse, in vivo; single dose
Experimental: FIG. 32 is results of single dose toxicity testing of some 2-hydroxybenzoic acid derivatives according to the present invention.
Single-dose toxicities of the 2-hydroxybenzoic acid derivatives were evaluated.

gastric mucous membrane = experiment: Safety test about induction of gastric mucous membrane damage; assay type: in vivo; conditions: oral, high dose; indomethacine, ibuprofen, celecoxib as control
Experimental: Test samples were orally administered at different doses to evaluate the degree of the gastric mucous membrane damage. Aspirin was used as control.
FIG. 2 is results showing degrees of the gastric mucous membrane damage. Test samples were orally administered at indicated doses. […] Indomethacine, ibuprofen and celecoxib were used as control.
Conventional NSAIDs have side effects causing damages to the gastric mucous membrane. Therefore, it was evaluated whether compound 2 having anti-inflammatory effect causes the gastric damage or not. 30, 100 or 300 mg/kg of aspirin was orally administered as control.

[2] = tested on: collagen-induced arthritis; experiment: Collagen-induced arthritis model (arthritic index); assay type: in vivo, mouse; conditions: 25 mg/kg/day intraperitoneal
Experimental: FIG. 15 is results showing efficacy through arthritis animal model induced by collagen. 25 mg/kg of compound 2, 3 or 18, or methotrexate (control, MTX, 1 mg/kg/week) was intraperitoneally injected after administration of collagen.
FIG. 16 is results showing efficacy of compounds 6 and 11 through arthritis animal model induced by collagen. Collagen was intradermally injected two times with 2 week-interval. One week later, compound 6, compound 11 and methotrexate (control) were intraperitoneally injected. Then, the animals were observed everyday for 2-3 weeks, and results was evaluated by arthritis index.
To evaluate the efficacy of the 2-hydroxybenzoic acid derivative, collagen-induced arthritis model (rheumarthritis animal model) was used. Bovine type II collagen was mixed with complete Freund's adjuvant to make an emulsion, and the emulsion was intradermally injected into the origin site of 8˜10 week-old DBA/1LacJ mouse tail. Intradermal boosting was performed by the same method 2 weeks later. 25 mg/kg/day of compounds 2, 3 and 18, 1 mg/kg/week of methotrexate (comparative example) or 10% vehicle (control) were intraperitoneally injected one week after the second intradermal injection of collagen (FIG. 15). Pictures of foot edema of normal rat (sham), collagen-administered rat (collagen) and compound 18-administered rat (compound 18, 25 mg/kg/day injection) were shown in FIG. 14.
In addition, 50 mg/kg/day of compounds 6 and 11, and 5 mg/kg/2 days of methotrexate (comparative example) were intraperitoneally injected. Phosphate buffered saline was injected as control (FIG. 16). For 2˜3 weeks, the degree of arthritis was observed everyday, and the result was evaluated according to the below arthritic index using edema.
4 paws were evaluated as from 0 to 4 point, Total points: 16

DSS-induced colitis = experiment: 5% dextran sulfate sodium (DSS) inflammatory intestinal disease model; assay type: in vivo, mouse
Experimental: FIG. 17 is results showing efficacy through 5% dextran sulfate sodium (DSS) model, inflammatory intestinal disease animal model. After treatment of DSS, 10, 25 or 50 mg/kg of compound 18 suspended in 10% vehicle was orally administered. Sham means colon of normal mouse, DSS means colon mouse treated with 5% DSS. The others are pictures of colon of mice administered with compound 18 at indicated dose.
FIG. 20 is an efficacy test result of compound 18 using DSS. After treatment of DSS, compound 18 (25 mg/kg) suspended in 10% vehicle was orally administered. After that, bloody excrement by colon injury, diarrhea and the degree of dirtiness were evaluated as feces score.
5% dextran sulfate sodium (DSS) model was used as inflammatory intestinal disease animal model. 5% DSS mixed with water was orally administered. 5% DSS model causes damage to epithelial cell, and ulcer in left colon and the decrease of colon length are mainly observed in the model. This model is simple and reproductive, and can regulate the degree of inflammation according to dose. Therefore, this model is often used for evaluating drug candidates.
DSS is continuously administered in water bottle. The 2-hydroxybenzoic acid derivative was suspended in 10% vehicle, and orally administered.

[3] = tested on: cerulein-induced pancreatitis; experiment: Cerulein-induced acute pancreatitis model; assay type: in vivo, wistar rat
Experimental: FIG. 21 is efficacy test results using acute pancreatitis model induced by cerulein. 50 ug/kg of cerulein was administered. Two hours later, edema was induced by administration of LPS. A-C are picture results, and D is graphs showing the weight of pancreas.
FIG. 22 is efficacy test results using acute pancreatitis model induced by cerulein. 50 ug/kg of cerulein was administered. Two hours later, edema was induced by administration of LPS. 25 mg/kg of compound 18 was administered, and the changes of amylase and lipase, pancreatic digestive enzymes, were quantified.
Cerulein-induced pancreatitis model was used as acute pancreatitis model. Cerulein is an analog of cholecystokinin and a hormone causing secretion of pancreatic digestive enzyme in pancreas. Digestive enzyme was over-secreted into pancreas by intraperitoneal injection of cerulein (50 ug/kg). LPS was injected 2 hours later to induce edema. When cerulein was administered, massive edema was observed on the basis of spleen. […] D of FIG. 21 is results showing the pancreas weight increased by the edema.
The model excessively increases digestive enzymes, which are released into blood. That is, the decrease of digestive enzyme in blood can be an indirect evidence for sample to reduce pancreatitis.
To confirm the protecting effect on inflammation, the levels of TNF-α and […], inflammatory cytokines, were evaluated. PGE2, the product of COX-2 (inflammation enzyme), were evaluated by ELISA method.

atherosclerosis = conditions: early formation of atherosclerotic lesion; cited from earlier work

For `C[C@@H](O)CCCCn1c(=O)c2c(ncn2C)n(C)c1=O` [Lisofylline], the “reduction of diabetic symptoms” value (diabetic symptoms) is listed as 50%.

With `CC(=O)Oc1ccc(NCCc2ccc(C(F)(F)F)cc2)cc1C(=O)O` [compound 18, 2-acetoxy-5-[2-(4-trifluoromethyl-phenyl)-ethylamino]-benzoic acid] the IC50 (BV2 microglia cell line) was 21.6 µM, the LD50 [1] was over 3000 mg/kg and the “gastric mucous membrane damage” value (gastric mucous membrane) was “did not cause damage to gastric mucous membrane”. The arthritic index [2] was “apparent reducing effect”, the “length and width of colon” value (DSS-induced colitis; oral, 10, 25 or 50 mg/kg in 10% vehicle) was “significantly changed the length and width of the colon” and the “feces score (bloody excrement, diarrhea, dirtiness)” value (DSS-induced colitis; vs DSS only, compound 18 25 mg/kg oral) was “significantly decreased feces score”. For the same compound, the “amylase and lipase in plasma” value ([3]; 25 mg/kg) was “significantly reduced the increase”, the pancreas weight ([3]; 25 mg/kg) was “significantly reduced pancreas weight” and the pancreatic edema ([3]; 25 mg/kg) was “the edema was decreased”. The “TNF-α, IL-1β and PGE2 (inflammation markers)” value ([3]; ELISA) was “significantly reduced these inflammation markers”.

For `COc1ccc2c(c1)c(CC(=O)O)c(C)n2C(=O)c1ccc(Cl)cc1` [indomethacine], the reduction of atherosclerosis (atherosclerosis) is listed as 38-51%.
